Test results as given in patent US4990534A, “Aralkyl esters and processes for their preparation” (priority 1987, dated 1991).
Where two headings read alike, the source gives them in different places.

Columns and labels:
[1] = system: synaptosomal uptake, noradrenalin; test: Inhibition of synaptosomal uptake of noradrenalin; assay type: biochemical; settings: rat cerebral cortex synaptosomes, 50 nM [3H]noradrenaline, pH 7.4, 37° C.
Experimental: (§1) Inhibition of the Synaptosomal Uptake of Monoamines
(§2) Crude synaptosome preparations from rat cerebral cortex were made by homogenizing the tissues in 10 volumes of ice-cold 0.32M sucrose with all-glass Potter'-Elvehjem's homogenizers. The homogenates were centrifuged at 800 g at +2° C. for 10 min. The supernatants were centrifuged at 12000 g at +2° C. for 10 min, and the pellets were rehomogenized in 0.32M sucrose to the original volume. The incubation of the preparations with [^14 C]serotonin plus [^3 H]noradrenaline with final concentrations of 50 nM of each amine was performed in a Micronic PPN Storage-Block-96 (Flow Laboratories) with 8×12 wells using two rows at each incubation. Four to five different concentrations of two test compounds in duplicates were examined at each incubation. Fifty microliters of the synaptosomal preparation, 400 μl of the Krebs-Henseleit's buffer, pH 7.4, containing 5.6 mM glucose, 1.1 mM ascorbic acid, 0.13 mM disodium edetate, and 50 μM pargyline, and 25 μl of the inhibitor or distilled water were added to the wells. The solutions were mixed by vortexing the block for 10 s. After 10-min preincubation at 37° C. in a water bath, 25 μl of the solutions of the radioactively labeled amines was added to the two rows with a Titretec Multicannel Pipette, type 12-Channel (Flow Laboratories). The reaction was immediately started by vortexing the block for 10 s on a Super-Mixer, and the incubation was continued for 2 min at 37° C. The uptake reaction was stopped by filtration and washing for 15 s with ice-cold 0.15M NaCl through a Whatman GF/B glass filter paper in a 24-channel Cell Harvester (Brandel) using the standard harvesting probe. The filters were left to dry in room temperature for about 1 h. The punched filters were transformed to counting vials, 10 mL of the scintillation liquid (Aquasol, NEN) was added, and vials were shaken and allowed to stand for 1 h before counting. The radioactivety was measured in a Packard Tri Carb liquid scintillation photometer. The active uptake of the amines was defined as the difference between the accumulation of the radioactivity in the absence (quadriplicates) and the presence (quadriplicates) of selective uptake inhibitors, determined at each incubation. These inhibitors were citalopram (0.3 μM) for the serotonin uptake and maprotiline (1 μM) for the norepinephrine uptake. The inhibition was calculated in percent of the active uptake. The IC50 values were obtained from log concentration-response curves.

[2] = system: synaptosomal uptake, serotonin; test: Inhibition of synaptosomal uptake of serotonin; assay type: biochemical; settings: rat cerebral cortex synaptosomes, 50 nM [14C]serotonin, pH 7.4, 37° C.
Experimental: as §1, §2

[3] = system: cholinergic responses (oxotremorine-induced tremor); test: Potentiation of oxotremorine-induced tremor in rats; assay type: in vivo, rat (Sprague Dawley); settings: for minimal effective dose: Rattus norvegicus
Experimental: Potentiation of cholinergic responses
Studies on oxotremorine-induced tremor in rats
Male rats (Sprague Dawley Alab Laboratorietjanst AB, Sollentuna, Sweden) weighing 150-180 g, 35-40 days of age, were used. The animals were allowed free access to food (R3, Ewos AB, Sodertalje, Sweden) and water until the start of the experiments. The test compounds were injected intraperitoneally (i.p.) 30 min before injection of oxotremorine into the neck (s.c.). Tremor intensity was assessed visually for a 60 min period following the injection of oxotremorine in rat housed in Macrolon cages (25×25×30 cm) (tree per cage). The treshold dose of oxotremorine for eliciting tremor in rat is 200 μg/kg.
Tremor intensity was scored using the following rating scale: 0=no tremor; 1=slight tremor (moderate, discontinuous tremor); 2=strong tremor (intense, continuous tremor involving the whole body). The animals were scored 5, 10, 15, 30 and 60 min after injection of oxotremorine. The tremor was scored for a period of 30 seconds.
The values for each observation were summed over the entire observation period (5-60 min) and their median values for each group were calculated (total median score). Mann-Whitney U-test (two-tailed) was used to determine differences between the control oxotremorine group and test groups receiving the compounds+oxotremorine. It should be noted that a control group receiving oxotremorine alone was always run concurrently with each compound tested.
The lowest dose causing a significant (p<0.05) potentiation of the oxotremorine response was determined from log-dose response curves.

[4] = system: neuronal 5-hydroxytryptamine (5-HT) uptake; settings: U.S. Pat. No. 4 237 311; cited from earlier work
[5] = system: central nervous system; settings: man; U.S. Pat. No. 4 237 311; cited from earlier work
[6] = system: cholinergic responses; settings: U.S. Pat. No. 4 469 707; cited from earlier work
[7] = ip, i.p. 30 min before oxotremorine s.c., p<0.05, scored 5-60 min, read-out: Potentiation of OTMN tremor in rat (lowest dose causing a significant potentiation)
[8] = i.p. 30 min before oxotremorine s.c., p<0.05, scored 5-60 min
[9] = ip, read-out: Potentiation of OTMN tremor in rat (lowest dose causing a significant potentiation), i.p. 30 min before oxotremorine s.c., p<0.05, scored 5-60 min

| Molecule | EC50 [1] | EC50 [2] | minimal effective dose [3, 7] | minimal effective dose [3, 9] | other results |
| --- | --- | --- | --- | --- | --- |
| C#CCC(N)C(=O)OC(C)(C)Cc1ccc(Cl)cc1 (centres unmarked) [Example 7, 1-(4-Chlorophenyl)-2-methyl-2-propyl 2-amino-4-pentynoate] | > 10 µM | > 10 µM | 10 mg/kg | – | – |
| 1-(4-Chlorophenyl)-2-methyl-2-propyl SS/RS-2-amino-3-methylpentanoate [Example 15] | 3.1 µM | 8 µM | – | – | Potentiation of OTMN tremor in rat (lowest dose causing a significant potentiation) [3, 8]: 10 mg/kg |
| CC(C)CC(N)C(=O)OC(C)(C)Cc1ccc(Cl)cc1 (centres unmarked) [Example 11, 1-(4-Chlorophenyl)-2-methyl-2-propyl 2-amino-4-methylpentanoate] | 3.4 µM | 8 µM | – | 10 mg/kg | – |
| CCC(N)C(=O)OC(C)(C)Cc1ccc(Cl)cc1 (centres unmarked) [Example 1, 1-(4-Chlorophenyl)-2-methyl-2-propyl 2-aminobutanoate] | 8 µM | 2.8 µM | – | 2.5 mg/kg | – |
| CCCC(N)C(=O)OC(C)(C)Cc1ccc(Cl)cc1 (centres unmarked) [Example 4, 1-(4-Chlorophenyl)-2-methyl-2-propyl 2-aminopentanoate] | 1.5 µM | 2.3 µM | 2.5 mg/kg | – | – |
| CC(C)C(N)C(=O)OC(C)(C)Cc1ccc(F)cc1 (centres unmarked) [Example 13, 1-(4-Fluorophenyl)-2-methyl-2-propyl 2-amino-3-methylbutanoate] | 2.9 µM | 10 µM | 20 mg/kg | – | – |
| CC(C)C(N)C(=O)OC(C)(C)Cc1ccc(Cl)cc1 (single isomer, unassigned; (+)) [Example 26, (+)-1-(4-Chlorophenyl)-2-methyl-2-propyl 2-amino-3-methylbutanoate] | 1.8 µM | 8.7 µM | – | 20 mg/kg | – |
| CCC(C)C(N)C(=O)OC(C)(C)Cc1ccc(Cl)cc1 (centres unmarked) [Example 12, 1-(4-Chlorophenyl)-2-methyl-2-propyl 2-amino-3-methylpentanoate] | 3.2 µM | 6.5 µM | – | 20 mg/kg | – |
| C=CCC(N)C(=O)OC(C)(C)Cc1ccc(Cl)cc1 (centres unmarked) [Example 5, 1-(4-Chlorophenyl)-2-methyl-2-propyl 2-amino-4-pentenoate] | 2.5 µM | 3.6 µM | 20 mg/kg | – | – |
| CCC(N)C(=O)OC(C)(C)Cc1ccc(F)cc1 (centres unmarked) [Example 2, 1-(4-fluorophenyl)-2-methyl-2-propyl 2-aminobutanoate] | 7 µM | 3 µM | – | 10 mg/kg | – |
| O=C1CCCN1CC#CCN1CCCC1 [oxotremorine, reference compound] | – | – | – | – | minimal effective dose ([3]; sc, read-out: threshold dose of oxotremorine for eliciting tremor in rat, s.c., oxotremorine alone): 0.2 mg/kg |
| CC(C)C(N)C(=O)OC(C)(C)Cc1cc(Cl)cc(Cl)c1 (centres unmarked) [Example 14, 1-(3,5-Dichlorophenyl)-2-methyl-2-propyl 2-amino-3-methylbutanoate] | > 10 µM | 4 µM | 10 mg/kg | – | – |
| CCCC(N)C(=O)OC(C)(C)Cc1ccc(F)cc1 (centres unmarked) [Example 3, 1-(4-fluoropnenyl)-2-methyl-2-propyl 2-aminopentanoate] | 3.2 µM | 6 µM | 10 mg/kg | – | – |
| CC(N)C(=O)OC(C)(C)Cc1ccc(Cl)cc1 (centres unmarked) [Alaproclate, reference compound] | > 10 µM | 0.12 µM | – | 5 mg/kg | tremor response induced by a threshold dose of oxotremorine (in words) ([3]; threshold dose of oxotremorine): enhance the tremor response; effect on neuronal 5-HT uptake (in words) [4]: blocking the neuronal 5-hydroxytryptamine (5-HT) uptake; antidepressive activity (in words) [5]: antidepressive activity combined with a reduced frequency of side effects; effect on cholinergic responses (in words) [6]: potentiating effect on cholinergic responses |
| CC(C)C(N)C(=O)OC(C)(C)Cc1ccc(Cl)cc1 (single isomer, unassigned) [Example 27, 1-(4-chlorophenyl)-2-methyl-2-propyl 2-amino-3-methyl-butanoate] | 1.7 µM | 3.3 µM | – | – | Potentiation of OTMN tremor in rat (lowest dose causing a significant potentiation) [3, 8]: 10 mg/kg |
